Measured values from ChEMBL document CHEMBL4145482, “Discovery of novel HSP90 inhibitors that induced apoptosis and impaired autophagic flux in A549 lung cancer cells” (Eur J Med Chem, 2018).
pIC50: −log10 of the molar value. The source made the active and inactive calls. No cut-off for these calls is given here.

Legend:
[1] = biological target: T1, Heat shock protein HSP90 (Homo sapiens) (UniProt P07900+P08238); test: Inhibition of anti-HSP90 antibody binding to HSP90 in human A549 cells preincubated for 1 hr followed by antibody addition by Western blot analysis; format: cell-based
A549 [2] = test: Growth inhibition of human A549 cells after 48 hrs by SRB assay; format: functional, cell-based; settings: for pIC50: A549, 48 h
A549 [3] = test: Induction of necrosis in human A549 cells at 10 to 20 uM after 48 hrs by LDH release assay; format: functional, cell-based
A549 [4] = test: Induction of apoptosis in human A549 cells assessed as DNA fragmentation at 10 uM after 6 to 24 hrs by Hoechst 33258 staining based fluorescence microscopic method; format: functional, cell-based
A549 [5] = test: Induction of apoptosis in human A549 cells assessed as chromatin condensation at 10 uM after 6 to 24 hrs by Hoechst 33258 staining based fluorescence microscopic method; format: functional, cell-based
A549 [6] = test: Inhibition of autophagic flux in human A549 cells assessed as increase in LC3-2 protein level at 10 uM after 24 hrs by Western blot analysis; format: functional, cell-based
A549 [7] = test: Inhibition of autophagic flux in human A549 cells assessed as increase in p62 protein level at 10 uM after 24 hrs by Western blot analysis; format: functional, cell-based
A549 [8] = test: Inhibition of autophagic flux in human A549 cells assessed as increase in LC3-2 protein level at 10 uM after 24 hrs in presence of V-ATPase inhibitor bafilomycin-A1 by Western blot analysis; format: functional, cell-based
A549 [9] = test: Inhibition of autophagic flux in human A549 cells assessed as increase in p62 protein level at 10 uM after 24 hrs in presence of V-ATPase inhibitor bafilomycin-A1 by Western blot analysis; format: functional, cell-based
[10] = biological target: T1, Heat shock protein HSP90 (Homo sapiens); test: Inhibition of HSP90 in human A549 cells assessed as reduction in AKT protein expression at 10 uM up to 48 hrs by Western blot analysis; format: cell-based
[11] = biological target: T1, Heat shock protein HSP90 (Homo sapiens); test: Inhibition of HSP90 in human A549 cells assessed as reduction in NFkB p65 protein expression at 10 uM up to 48 hrs by Western blot analysis; format: cell-based
A549 [12] = test: Effect on HSP90 protein expression in human A549 cells at 10 uM up to 48 hrs by Western blot analysis; format: cell-based; settings: a549, 48 h
A549 [13] = test: Upregulation of HSP70 protein expression in human A549 cells at 10 uM up to 48 hrs by Western blot analysis; format: cell-based; settings: a549, 48 h
HUVEC = test: Cytotoxicity against HUVEC assessed as reduction in cell viability after 48 hrs by SRB assay; format: cell-based; settings: human
A549 [14] = test: Growth inhibition of human A549 cells up to 20 uM up to 48 hrs by SRB assay; format: functional, cell-based

Compound	inhibition [1]	growth inhibition (GI) (A549 [2])	pIC50 (A549 [2])	Activity (A549 [3])	Activity (A549 [4])	Activity (A549 [5])	Activity (A549 [6])	Activity (A549 [7])	Activity (A549 [8])	Activity (A549 [9])	inhibition [10]	inhibition [11]	Activity (A549 [12])	Activity (A549 [13])	Activity (HUVEC)	growth inhibition (GI) (A549 [14])
COc1ccc(C2CC(c3cc4ccc(O)cc4oc3=O)=NN2c2ccccc2)cc1 (stereo unspecified)	Dose-dependent effect	Dose-dependent effect	5.20	inactive	Active	Active	Active	Active	inactive	inactive	–	–	–	–	–	–
COc1ccc(C2CC(c3cc4ccc(O)cc4oc3=O)=NN2c2ccc(F)cc2)cc1 (stereo unspecified)	Dose-dependent effect	Dose-dependent effect	5.15	inactive	Active	Active	Active	Active	inactive	inactive	–	–	–	–	–	–
O=c1oc2cc(O)ccc2cc1C1=NN(c2ccccc2)C(c2ccccc2)C1 (stereo unspecified)	Dose-dependent effect	Dose-dependent effect	5.33	inactive	Active	Active	Active	Active	inactive	inactive	Active	Active	Non-Toxic	Non-Toxic	Non-Toxic	–
COc1ccc(C2CC(c3cc4ccc(O)cc4oc3=O)=NN2c2ccc(Cl)cc2)cc1 (stereo unspecified)	Dose-dependent effect	Dose-dependent effect	5.02	inactive	Active	Active	Active	Active	inactive	inactive	–	–	–	–	–	–
O=c1oc2cc(O)ccc2cc1C1=NN(c2ccc(F)cc2)C(c2ccccc2)C1 (stereo unspecified)	Dose-dependent effect	Dose-dependent effect	5.14	inactive	Active	Active	Active	Active	inactive	inactive	–	–	–	–	–	–
O=c1[nH]cc(F)c(=O)[nH]1	–	–	–	–	–	–	–	–	–	–	–	–	–	–	–	inactive
COc1ccc(C2CC(c3cc4ccc(O)cc4oc3=O)=NN2c2ccc(Br)cc2)cc1 (stereo unspecified)	Dose-dependent effect	Dose-dependent effect	5.19	inactive	Active	Active	Active	Active	inactive	inactive	–	–	–	–	–	–
